# Experiments:
# [1] = Tail suspension test (TST); type: in vivo, mice; conditions: 3 mg/kg p.o. of each drug; for Immobility time (sec, mean ± SE): 60 min before suspension, 5-15 min period, N = 7-9; for % of shortening for immobility time: versus vehicle
# Excerpt: The tail suspension test (TST) was originally described by Steru et al. […] The antidepressant activity of a test drug can be detected as an index of shortening the immobility time. This test is widely used as to an experimental animal model for predicting the antidepressant activity of a test drug in clinical settings. An automated device for performing the TST was developed by the authors of the TST (1989).^2) We improved this device and developed our own device incorporating an electric balance, an A/D converter, a testing box (30×25×25 cm), and a personal computer. The mouse was suspended from a hook hanging from the ceiling in the testing box by adhesive tape applied 20 mm from the tip of the tail. The duration of immobility was measured by the computer for a period of 15 min following the start of suspension. […] The experiments were carried out in a sound-proof room.
# [2] = Augmentation therapy in major depressive disorder patients non-responsive or partially responsive to serotonin reuptake inhibitors; type: in vivo; conditions: 10 to 30 mg/day for 4 to 8 weeks, added to serotonin reuptake inhibitor therapy
# Method: Only patients with such Hamilton scores receive treatment. These patients are interviewed to obtain a complete medical and psychiatric history.
# Only patients with such Hamilton scores receive treatment. These patients are interviewed to obtain a complete medical and psychiatric history. Dehydroaripiprazole is first administered at a dose of 10 mg/day and increased to 30 mg/day as needed in the opinion of the monitoring psychiatrist. Dehydroaripiprazole is administered to these patients at a dose of from 10 mg/day to 30 mg/day for a period of at least four weeks, and up to eight weeks for patients who respond well to this treatment during the first four weeks.
Compound,"Immobility time (sec, mean ± SE) [1] [s]",% of shortening for immobility time [1] [%],"symptoms of depression (Hamilton test, CGI, AIMS, SAS, Barnes) [2]"
"O=C1CCc2ccc(OCCCCN3CCN(c4cccc(Cl)c4Cl)CC3)cc2N1 [Aripiprazole, 7-{4-[4-(2,3-Dichlorophenyl)-1-piperazinyl]-butoxy}-3,4-dihydrocarbostyril]",486.4 ± 12.3,3,improvement in alleviation of symptoms of depression
"CN(C)CCCC1(c2ccc(F)cc2)OCc2cc(C#N)ccc21 (centres unmarked) [Citalopram, citalopram]",468.7 ± 24.2,6,–

# From patent publication US20190151308A1 (Otsuka Pharmaceutical Co., Ltd., priority 2002, published 2019)
